Test results reported in PMC11938010, “Positive Charge in an Antimalarial Compound Unlocks Broad-Spectrum Antibacterial Activity” (JACS Au, 2025).
Values after ≈ are worked out from the molar mass of the structure shown. Read-outs that look alike come from different tables or passages of the source.

How the values were obtained:
[1] = system: Plasmodium falciparum NF54; experiment: P. falciparum in vitro drug sensitivity assay on asexual blood stage parasites ([3H]-hypoxanthine incorporation); type: cell-based; conditions: read-out: PfNF54 IC50
Escherichia coli ∆tolC = experiment: microbe, parasite or virus in culture; type: cell-based; conditions: Escherichia coli
E. coli K12 = experiment: In vitro antibacterial activity (growth inhibition, OD600), E. coli wild-type; type: cell-based; conditions: Escherichia coli
Acinetobacter baumannii = experiment: In vitro antibacterial activity (growth inhibition, OD600), A. baumannii; type: cell-based; conditions: for MIC: read-out: Ab MIC95
[2] = system: Pseudomonas aeruginosa PA14; experiment: In vitro antibacterial activity (growth inhibition, OD600), P. aeruginosa; type: cell-based; conditions: PA14, 50 μM compound, Table 1 and main text, read-out: PA14 inh. at 50 μM
[3] = system: Streptococcus pneumoniae (DSM20566); experiment: In vitro antibacterial activity (MIC), S. pneumoniae; type: cell-based; conditions: Streptococcus pneumoniae, DSM20566, read-out: Sp MIC95
[4] = system: Staphylococcus aureus ssp. Aureus; experiment: In vitro antibacterial activity (MIC), S. aureus; type: cell-based; conditions: Staphylococcus aureus, read-out: Sa MIC95
[5] = system: Mycobacterium tuberculosis (Mtb) strain H37Rv; experiment: microbe, parasite or virus in culture; type: cell-based; conditions: 168 h, 7 days, footnote b: not active at maximum solubility, read-out: MtbH37Rv MIC90
in vitro = conditions: human, HepG2 CC50, 48 h, MTT
[6] = Plasmodium falciparum, NF54, Table 1 and main text
[7] = K12, 50 μM compound, Table 1 and main text, read-out: EcK12 inh. at 50 μM
[8] = 50 μM compound, Table 1 and main text, read-out: Ab inh. at 50 μM
[9] = 50 µM, Table S1, with standard deviation, read-out: Ab inh. at 50 µM (%)
[10] = Table S2, with standard deviation
[11] = Table S1, printed inside the inhibition column, with standard deviation, unit from Table 1 footnote
[12] = printed inside the Ab inhibition column, Table 1 and main text

With `O=C(Nc1ccc(CN2CCNCC2)cc1)c1cc(-c2cc(Cl)ccc2O)[nH]n1` [Compound 4A] the IC50 [1, 6] was 270 nM, the MIC (Escherichia coli ∆tolC; read-out: EcΔtolC MIC95) was 40 µM (≈ 16.5 µg/mL) and the MIC (Escherichia coli ∆tolC; read-out: Ec∆tolC MIC95 (µM)) was 40 ± 8 µM (≈ 16.5 µg/mL). It also gave an inhibition at 50 µM (E. coli K12; [7]) of 34%, an inhibition at 50 µM (Acinetobacter baumannii; [8]) of 24% and an inhibition at 50 µM (Acinetobacter baumannii; [9]) of 24.2 ± 7.7%. For the same compound, the inhibition at 50 µM [2] was 62%, the MIC ([3]; Table 1 and main text) was 40 µM (≈ 16.5 µg/mL) and the MIC [3, 10] was 40 ± 7 µM (≈ 16.5 µg/mL). The MIC ([4]; Table 1 and main text) was over 50 µM, the MIC [4, 10] was over 50 µM and the MIC90 [5] was 64 µM (≈ 26.4 µg/mL). The CC50 (in vitro) was 13000 nM.

For `NCc1cc(NC(=O)c2cc(-c3cc(Cl)ccc3O)[nH]n2)cc(C(F)(F)F)c1` [Compound 9A, N-(3-(Aminomethyl)-5-(trifluoromethyl)phenyl)-5-(5-chloro-2-hydroxyphenyl)-1H-pyrazole-3-carboxamide], the IC50 [1, 6] was 82 nM, the MIC (Escherichia coli ∆tolC; read-out: EcΔtolC MIC95) was 8 µM (≈ 3.29 µg/mL) and the MIC (Escherichia coli ∆tolC; read-out: Ec∆tolC MIC95 (µM)) was 8 ± 3 µM (≈ 3.29 µg/mL). The inhibition at 50 µM (E. coli K12; [7]) was under 10%, the MIC (Acinetobacter baumannii; [11]) was 48.9 ± 0.5 µM (≈ 20.1 µg/mL) and the MIC (Acinetobacter baumannii; [12]) was 49 µM (≈ 20.1 µg/mL). It also gave an inhibition at 50 µM [2] of under 10%, an MIC ([3]; Table 1 and main text) of 11 µM (≈ 4.52 µg/mL) and an MIC [3, 10] of 10.8 ± 2.5 µM (≈ 4.44 µg/mL). The MIC ([4]; Table 1 and main text) was 12.1 µM (≈ 4.97 µg/mL), the MIC [4, 10] was 12.1 ± 0.6 µM (≈ 4.97 µg/mL) and the MIC90 [5] was 32 µM (≈ 13.1 µg/mL). The CC50 (in vitro) was 7000 nM.

Work on `O=C(Nc1cc(N2CCN(C3=NCCN3)CC2)cc(C(F)(F)F)c1)c1cc(-c2cc(Cl)ccc2O)[nH]n1` [Compound 11C, 5-(5-Chloro-2-hydroxyphenyl)-N-(3-(4-(4,5-dihydro-1H-imidazol-2-yl)piperazin-1-yl)-5-(trifluoromethyl)phenyl)-1H-pyrazole-3-carboxamide] yielded an IC50 [1, 6] of 590 nM, an MIC (Escherichia coli ∆tolC; read-out: EcΔtolC MIC95) of 7 µM (≈ 3.74 µg/mL) and an MIC (Escherichia coli ∆tolC; read-out: Ec∆tolC MIC95 (µM)) of 7 ± 2 µM (≈ 3.74 µg/mL). For the same compound, the inhibition at 50 µM (E. coli K12; [7]) was 63%, the inhibition at 50 µM (Acinetobacter baumannii; [8]) was 53% and the inhibition at 50 µM [2] was under 10%. For the same compound, the MIC ([3]; Table 1 and main text) was 7 µM (≈ 3.74 µg/mL), the MIC [3, 10] was 7 ± 2 µM (≈ 3.74 µg/mL) and the MIC ([4]; Table 1 and main text) was 8 µM (≈ 4.27 µg/mL). The MIC [4, 10] was 8 ± 2 µM (≈ 4.27 µg/mL), the MIC90 [5] was 8 µM (≈ 4.27 µg/mL) and the CC50 (in vitro) was over 50000 nM.

Compound `O=C(Nc1cc(N2CCNCC2)cc(C(F)(F)F)c1)c1cc(-c2cc(Cl)ccc2O)[nH]n1` [Compound 11A] has an IC50 [1, 6] of at most 60 nM, an IC50 ([1]; Table 1 and main text) of 50 nM and an MIC (Escherichia coli ∆tolC; read-out: EcΔtolC MIC95) of 7 µM (≈ 3.26 µg/mL). For the same compound, the MIC (Escherichia coli ∆tolC; read-out: Ec∆tolC MIC95 (µM)) was 7 ± 2 µM (≈ 3.26 µg/mL), the inhibition at 50 µM (E. coli K12; [7]) was 72% and the MIC (Acinetobacter baumannii; [11]) was 22 ± 3 µM (≈ 10.2 µg/mL). It also gave an MIC (Acinetobacter baumannii; [12]) of 22 µM (≈ 10.2 µg/mL), an inhibition at 50 µM [2] of under 10% and an MIC ([3]; Table 1 and main text) of 5 µM (≈ 2.33 µg/mL). It also gave an MIC [3, 10] of 5 ± 1 µM (≈ 2.33 µg/mL), an MIC ([4]; Table 1 and main text) of 6 µM (≈ 2.8 µg/mL) and an MIC [4, 10] of 6 ± 2 µM (≈ 2.8 µg/mL). It also gave an MIC90 [5] of 32 µM (≈ 14.9 µg/mL) and a CC50 (in vitro) of 9000 nM.

Work on `N=C(N)NCc1ccc(NC(=O)c2cc(-c3cc(Cl)ccc3O)[nH]n2)cc1` [Compound 8G, 5-(5-Chloro-2-hydroxyphenyl)-N-(4-(guanidinomethyl)phenyl)-1H-pyrazole-3-carboxamide] yielded an IC50 [1, 6] of 420 nM, an MIC (Escherichia coli ∆tolC; read-out: EcΔtolC MIC95) of 47.5 µM (≈ 18.3 µg/mL) and an MIC (Escherichia coli ∆tolC; read-out: Ec∆tolC MIC95 (µM)) of 47.5 µM (≈ 18.3 µg/mL). For the same compound, the inhibition at 50 µM (E. coli K12; [7]) was 29%, the inhibition at 50 µM (Acinetobacter baumannii; [8]) was 19.9% and the inhibition at 50 µM [2] was 41%. The MIC ([3]; Table 1 and main text) was over 50 µM, the MIC [3, 10] was over 50 µM and the MIC ([4]; Table 1 and main text) was 22 µM (≈ 8.47 µg/mL). It also gave an MIC [4, 10] of 22 ± 1 µM (≈ 8.47 µg/mL), an MIC90 [5] of over 64 µM and a CC50 (in vitro) of over 50000 nM.

`O=C(Nc1ccc(CNC2=NCCN2)c(C(F)(F)F)c1)c1cc(-c2cc(Cl)ccc2O)[nH]n1` [Compound 10C, 5-(5-Chloro-2-hydroxyphenyl)-N-(4-(((4,5-dihydro-1H-imidazol-2-yl)amino)methyl)-3-(trifluoromethyl)phenyl)-1H-pyrazole-3-carboxamide] showed an IC50 [1, 6] of 404 nM, an MIC (Escherichia coli ∆tolC; read-out: EcΔtolC MIC95) of 5.5 µM (≈ 2.63 µg/mL) and an MIC (Escherichia coli ∆tolC; read-out: Ec∆tolC MIC95 (µM)) of 5.5 ± 0.8 µM (≈ 2.63 µg/mL). For the same compound, the inhibition at 50 µM (E. coli K12; K12, read-out: EcK12 inh. at 50 μM, 50 μM compound, Table 1 and main text) was 77%, the inhibition at 50 µM (Acinetobacter baumannii; [8]) was 47% and the inhibition at 50 µM (Acinetobacter baumannii; [9]) was 49.6 ± 0.9%. It also gave an inhibition at 50 µM [2] of 29%, an MIC ([3]; Table 1 and main text) of 14 µM (≈ 6.7 µg/mL) and an MIC [3, 10] of 14 ± 2 µM (≈ 6.7 µg/mL). The MIC ([4]; Table 1 and main text) was 8 µM (≈ 3.83 µg/mL), the MIC [4, 10] was 8 ± 2 µM (≈ 3.83 µg/mL) and the MIC90 [5] was 16 µM (≈ 7.66 µg/mL). For the same compound, the CC50 (in vitro) was over 50000 nM.

For `CC(C)(C)OC(=O)N1CCN=C1NCc1ccc(NC(=O)c2cc(-c3cc(Cl)ccc3O)[nH]n2)cc1C(F)(F)F` [Compound 10D, tert-Butyl 2-((4-(5-(5-chloro-2-hydroxyphenyl)-1H-pyrazole-3-carboxamido)-2-(trifluoromethyl)benzyl)amino)-4,5-dihydro-1H-imidazole-1-carboxylate], the IC50 [1, 6] was 140 nM, the MIC (Escherichia coli ∆tolC; read-out: EcΔtolC MIC95) was 18 µM (≈ 10.4 µg/mL) and the MIC (Escherichia coli ∆tolC; read-out: Ec∆tolC MIC95 (µM)) was 18 ± 6 µM (≈ 10.4 µg/mL). It also gave an inhibition at 50 µM (E. coli K12; [7]) of 17%, an inhibition at 50 µM (Acinetobacter baumannii; [8]) of under 10% and an inhibition at 50 µM [2] of under 10%. It also gave an MIC ([3]; Table 1 and main text) of over 50 µM, an MIC [3, 10] of over 50 µM and an MIC ([4]; Table 1 and main text) of 11.6 µM (≈ 6.72 µg/mL). It also gave an MIC [4, 10] of 11.6 ± 0.2 µM (≈ 6.72 µg/mL), an MIC90 [5] of 16 µM (≈ 9.26 µg/mL) and a CC50 (in vitro) of 11000 nM.

Work on `CC(C)(C)OC(=O)N1CCN(c2cccc(NC(=O)c3cc(-c4cc(Cl)ccc4O)[nH]n3)c2)CC1` [Compound 5B] yielded an IC50 [1, 6] of 900 nM, an MIC (Escherichia coli ∆tolC; read-out: EcΔtolC MIC95) of over 50 µM and an inhibition at 50 µM (Escherichia coli ∆tolC; read-out: Ec∆tolC inh. at 50 µM (%)) of 19 ± 14%. For the same compound, the inhibition at 50 µM (E. coli K12; K12, 50 µM, Table S1, with standard deviation, read-out: EcK12 inh. at 50 µM (%)) was under 10%, the MIC ([3]; Table 1 and main text) was over 50 µM and the MIC [3, 10] was over 50 µM. For the same compound, the MIC ([4]; Table 1 and main text) was over 50 µM, the MIC [4, 10] was over 50 µM and the CC50 (in vitro) was over 50000 nM.
